Columns and labels:
[1] = tested on: Phospho-Rb (Ser807/811) in SW1573-CDK6 KO cells; assay: Phospho-Rb expression inhibition in SW1573-CDK6 KO cells quantified by in cell Western; type: cell-based; settings: Homo sapiens, 24 hours, read-out: SW1573 CDK6 KO pRb IC50
Method: (§1) Parental SW1573 cells were obtained from the American Type Culture Collection (ATCC). CDK4 or CDK6 gene in […] cells was knocked out using the CRISPR-Cas9 technology. First, gRNA complex of CDK4 or CDK6 was prepared with Alt-R CRISPR-Cas9 tracrRNA and crRNA CDK4 (5′-[…]-3′ (SEQ ID NO: 4)) or CDK6 (5′-[…]-3′ (SEQ ID NO. 5)) (IDT-Integrated DNA Technologies), and then ribonucleoprotein (RNP) complex of CDK4 or CDK6 was prepared with respective gRNA complex and Alt-R S.p. Cas9 Nuclease V3 (IDT-Integrated DNA Technologies). Next, 5×10^4/10 μL SWJ1573 cells were electroporated with the CDK4 or CDK6 RNP complex and Alt-R Cas9 Electroporation Enhancer using Neon Transfection System (Thermo Fisher). Cells were then plated in a 96-well plate to select single clones for validation of CDK4 or CDK6 knockout by western blot analysis.
(§2) MCF7 cells were obtained from American Type Culture Collection (ATCC, HTB-22). SW1573-CDK6 KO and SW1573-CDK4 KO cells were generated by the CRISPR-Cas9 technology. All cells were plated in 96-well plates (VWR #10062-900, or Corning #3904) in 90 uL culture medium at a density of 20,000 cells/well in the respective growth medium containing 10% FBS and 1% Penicillin Streptomycin, and then incubated at 37° C. overnight. The following day, the test compound was administered to the cells by using 1000× compound stock solution prepared in DMSO at various concentrations. 1000× compound stock solution was first diluted in culturing medium to 10×, then 10 uL compound medium was added to each well in the cell plates. After administration of the compound, the cells were then incubated at 37° C. for 24 hours. Upon completion, the cells were washed with PBS briefly. 150 uL/well of 4% formaldehyde was added and the plates were incubated at room temperature for 20 mins. The cells were washed with PBS briefly, and permeabilized with 150 uL/well of ice cold 100% methanol for 10 mins. The cells were washed with PBS briefly and blocked with 100 uL/well LI-COR blocking buffer for 1 hr at room temperature with gentle shaking. The cells were incubated overnight at 4° C. with 50 uL primary antibody rabbit anti-Phospho-Rb (Ser807/811) (1: 500, Cell Signaling, #8516) and anti-Rb (1:200, Santa Cruz, sc-73598) diluted in Intercept Blocking Buffer (LI-COR, #927-60001) containing 0.1% Tween 20. The next day, the cells were washed with 200 uL PBS containing 0.1% Tween 20, 5×5 mins at room temperature with gentle shaking, and incubated with 50 uL secondary antibody, IRDye® 800CW Goat anti-Rabbit IgG (1:1000, LI-COR, #926-32211) and IRDye®680RD Goat anti-Mouse IgG (1:1000, LI-COR, #926-68070), in LI-COR blocking buffer with 0.2% Tween 20 for 1 hr at room temperature with gentle shaking. The cells were washed with 200 uL PBS containing 0.1% Tween 20, 5×5 mins at room temperature with gentle shaking. The cells were washed with PBS for 5 mins. 100 uL fresh PBS was added to each well and the plates were imaged on a LI-COR Odyssey CLX plate reader.

[2] = tested on: Phospho-Rb (Ser807/811) in SW1573-CDK4 KO cells; assay: Phospho-Rb expression inhibition in SW1573-CDK4 KO cells quantified by in cell Western; type: cell-based; settings: Homo sapiens, 24 hours, read-out: SW1573 CDK4 KO pRb IC50
Method: as §1, §2

Row | Structure (SMILES) | IC50 [1] | IC50 [2]
1 | Cc1nc2c(F)cc(-c3nc(N[C@@H]4C[C@H]5CO[C@H](O5)[C@H]4O)ncc3Cl)cc2n1C(C)C [Compound 25, (1S,3R,4S,5R)-3-((5-chloro-4-(4-fluoro-1-isopropyl-2-methyl-1H-benzo[d]imidazol-6-yl)pyrimidin-2-yl)amino)-6,8-dioxabicyclo[3.2.1]octan-4-ol] | ≤ 40 nM | > 1000 nM
2 | Cc1c(C)n(C(C)C)c2cc(-c3nc(N[C@@H]4C[C@H]5CO[C@H](O5)[C@H]4O)ncc3Cl)ccc2c1=O [Compound 191, 7-(5-chloro-2-(((1S,3R,4S,5R)-4-hydroxy-6,8-dioxabicyclo[3.2.1]octan-3-yl)amino)pyrimidin-4-yl)-1-isopropyl-2,3-dimethylquinolin-4(1H)-one] | 150 to 1000 nM | > 1000 nM
3 | CNCc1c(C)c(=O)c2ccc(-c3nc(N[C@@H]4C[C@H]5CO[C@H](O5)[C@H]4O)ncc3F)cc2n1C(C)C [Compound 194, 7-(5-fluoro-2-(((1S,3R,4S,5R)-4-hydroxy-6,8-dioxabicyclo[3.2.1]octan-3-yl)amino)pyrimidin-4-yl)-1-isopropyl-3-methyl-2-((methylamino)methyl)quinolin-4(1H)-one] | 40 to 150 nM | > 1000 nM
4 | Cc1c(CN(C)C)n(C(C)C)c2cc(-c3nc(N[C@@H]4C[C@H]5CO[C@H](O5)[C@H]4O)ncc3F)ccc2c1=O [Compound 195, 2-((dimethylamino)methyl)-7-(5-fluoro-2-(((1S,3R,4S,5R)-4-hydroxy-6,8-dioxabicyclo [3.2.1]octan-3-yl)amino)pyrimidin-4-yl)-1-isopropyl-3-methylquinolin-4(1H)-one] | ≤ 40 nM | > 1000 nM
5 | Cc1c(CN2CCC2)n(C(C)C)c2cc(-c3nc(N[C@@H]4C[C@H]5CO[C@H](O5)[C@H]4O)ncc3F)ccc2c1=O [Compound 196, 2-(azetidin-1-ylmethyl)-7-(5-fluoro-2-(((1S,3R,4S,5R)-4-hydroxy-6,8-dioxabicyclo[3.2.1]octan-3-yl)amino)pyrimidin-4-yl)-1-isopropyl-3-methylquinolin-4(1H)-one] | 40 to 150 nM | > 1000 nM
6 | Cc1c(CN2CC(F)C2)n(C(C)C)c2cc(-c3nc(N[C@@H]4C[C@H]5CO[C@H](O5)[C@H]4O)ncc3F)ccc2c1=O [Compound 197, 7-(5-fluoro-2-(((1S,3R,4S,5R)-4-hydroxy-6,8-dioxabicyclo[3.2.1]octan-3-yl)amino)pyrimidin-4-yl)-2-((3-fluoroazetidin-1-yl)methyl)-1-isopropyl-3-methylquinolin-4(1H)-one] | 40 to 150 nM | > 1000 nM
7 | Cc1c(CN2[C@@H](C)COC[C@@H]2C)n(C(C)C)c2cc(-c3nc(N[C@@H]4C[C@H]5CO[C@H](O5)[C@H]4O)ncc3F)ccc2c1=O [Compound 199, 2-(((3S,5S)-3,5-dimethylmorpholino)methyl)-7-(5-fluoro-2-(((1S,3R,4S,5R)-4-hydroxy-6,8-dioxabicyclo[3.2.1]octan-3-yl)amino)pyrimidin-4-yl)-1-isopropyl-3-methylquinolin-4(1H)-one] | ≤ 40 nM | 150 to 1000 nM
8 | CC(C)n1c(CN2[C@@H](C)COC[C@@H]2C)c(F)c(=O)c2ccc(-c3nc(N[C@@H]4C[C@H]5CO[C@H](O5)[C@H]4O)ncc3Cl)cc21 [Compound 201, 7-(5-chloro-2-(((1S,3R,4S,5R)-4-hydroxy-6,8-dioxabicyclo[3.2.1]octan-3-yl)amino)pyrimidin-4-yl)-2-(((3S,5S)-3,5-dimethylmorpholino)methyl)-3-fluoro-1-isopropylquinolin-4(1H)-one] | 40 to 150 nM | > 1000 nM
9 | CC(C)n1c(CN2CC[C@@H](F)C2)c(F)c(=O)c2ccc(-c3nc(N[C@@H]4C[C@H]5CO[C@H](O5)[C@H]4O)ncc3F)cc21 [Compound 202, 3-fluoro-7-(5-fluoro-2-(((1S,3R,4S,5R)-4-hydroxy-6,8-dioxabicyclo[3.2.1]octan-3-yl)amino)pyrimidin-4-yl)-2-(((R)-3-fluoropyrrolidin-1-yl)methyl)-1-isopropylquinolin-4(1H)-one] | 40 to 150 nM | > 1000 nM

Source: US20250084095A1, “Aminopyrimidine Derivatives as Cyclin-Dependent Kinase Inhibitors” (Accutar Biotechnology Inc., priority 2023, published 2025)
